In patent publication US20220280507A1, “USES OF 5-METHYLTETRAHYDROFOLATE AND ITS COMPOSITION” (Lianyungang Jinkang Hexin Pharmaceutical Co., Ltd., priority 2019, published 2022):

Columns and labels:
[1] = tested on: IL-6; experiment: LPS-induced inflammatory response in astrocytes, IL-6 release (ELISA); assay type: cell-based, Kunming mice; conditions: culture supernatant, LPS 1 μg·ml-1 + substance 10 μg·ml-1, 24 h, n=6
Excerpt: (§1) Experiment 9 Inhibition of 5-Methyltetrahydrofolate and Curcumin on LPS-Induced Inflammatory Response in Astrocytes
(§2) The cerebral cortex of Kunming mice at 1˜2 d was taken out under aseptic conditions, washed 3 times with cold PBS after removing residual meninges and blood vessels, prepared into single cell suspension by blowing, centrifuged, the supernatant was discarded, and the precipitant was resuspended in AST basic medium (high-sugar DMEM containing 10% FBS). The suspension was inoculated into a culture flask coated with poly-L-lysine (0.1 mg/ml), and cultured in a CO2 incubator. After 24 h, tissue debris and non-adherent cells were removed by replacing the medium. Afterwards, the medium was replaced every 3 days until the cells reached 80% confluence, then the flask was placed on a constant temperature rotary shaker, where the suspension was centrifuged at 180 r/min, 37° C. for 18 h to remove oligodendrocytes and microglia from the upper layer. Then trypsin digestion was used for subculture. […]
(§3) LPS (1 μg·ml-1), LPS (1 μg·ml-1)+curcumin (10 μg·ml-1), LPS (1 μg·ml-1)+5-MTHF-Ca (10 μg·ml-1); experimental group: LPS (1 μg·ml-1)+curcumin (5 μg·ml-1)+5-MTHF-Ca (5 μg·ml-1). After 24 h, the culture supernatant was collected, and the cytokines IL-6, IL-1β and TNF-α were detected by ELISA.

[2] = tested on: IL-1β; experiment: LPS-induced inflammatory response in astrocytes, IL-1β release (ELISA); assay type: cell-based, Kunming mice; conditions: culture supernatant, LPS 1 μg·ml-1 + substance 10 μg·ml-1, 24 h, n=6
Excerpt: as §1, §2, §3

[3] = tested on: TNF-α; experiment: LPS-induced inflammatory response in astrocytes, TNF-α release (ELISA); assay type: cell-based, Kunming mice; conditions: culture supernatant, LPS 1 μg·ml-1 + substance 10 μg·ml-1, 24 h, n=6
Excerpt: as §1, §2, §3

[4] = Alcoholic fatty liver model, body weight during administration period; assay type: in vivo, SD rats; conditions: liquor model, 50 mg·kg−1·d−1 ig
Experimental: (§4) According to their weight, they were randomly divided into vehicle control group (purified water, ig), model control group (liquor, 10 ml·Kg−1), positive control group (bicyclol, 50 mg·Kg−1, ig), folic acid calcium salt high-dose group (4 mg·Kg−1), folic acid calcium salt medium-dose group (2 mg·Kg−1), folic acid calcium salt low-dose group (1 mg·Kg−1), in half female and half male, and 16 rats in each group. Purified water was used as a negative control, and bicyclol (place of origin: Beijing Xiehe Pharmaceutical Factory, specification: 25 mg/tablet, batch number: H20040467) was used as a positive control drug. Route of administration: all were administered by oral gavage. Dosage of administration: 1 mg·Kg−1, 2 mg·Kg−1, and 4 mg·Kg−1. Frequency of administration: once a day for 60 consecutive days.
(§5) Method of administration: administration started at prescribed doses on the day of modeling for 60 consecutive days and ended at the 60th day. At the same time, rats in each group were weighed every other week during administration period to monitor their body weight changes. On the 61st day, rats were dissected and serum was collected for determination of triglyceride (TG), total cholesterol (TC), malondialdehyde (MDA), superoxide dismutase (SOD) and liver histopathologic examination. The brain tissue of rats was taken out, and hippocampus tissue was separated on ice plate, prepared to homogenate with a mass fraction of 10% with purified water, then the homogenate was centrifuged to obtain supernatant. ELISA was used to detect the levels of inflammatory factors TNF-α and IL-1β in hippocampus tissue with continuous spectrum scanning microplate reader.

[5] = tested on: alcoholic liver damage and fatty liver; experiment: Alcoholic fatty liver model, serum TG, TC, SOD, MDA and liver histopathology; assay type: in vivo, SD rats
Experimental: as §4, with “96 SPF-grade SD rats were chosen in half female and half male with an average weight of 176-220 g at the beginning of the experiment. According” for “According”, “days. Erguotou (batch number: 201603092, specification: 2L, place of origin: Beijing Shunxin Agriculture Co., Ltd.) model establishing method: gavage with diluted 56-degree Erguotou twice a day for 60 consecutive days.” for “days.”
as §5

[6] = tested on: TNF-α; experiment: Alcoholic fatty liver model, TNF-α in hippocampus tissue (ELISA); assay type: in vivo, SD rats; conditions: liquor model, 50 mg·kg−1·d−1 ig 60 d, n=16
Experimental: as §4, §5

[7] = tested on: IL-1β; experiment: Alcoholic fatty liver model, IL-1β in hippocampus tissue (ELISA); assay type: in vivo, SD rats; conditions: liquor model, 50 mg·kg−1·d−1 ig 60 d, n=16
Experimental: as §4, §5

[8] = tested on: hyperlipemia rats; experiment: Hyperlipemia rats (high-fat diet), body mass, liver mass, liver index, NASH pathology; assay type: in vivo, SD rats; conditions: positive drug group, 60 d
Experimental: (§6) Experiment 5 Effect of 5-Methyltetrahydrofolate Calcium on Hyperlipemia Rats
(§7) 7 weeks later, one rat in the control group and one rat in the model group were sacrificed for liver tissue section to check fatty degeneration of hepatocytes (see Table 7) to confirm whether modeling was successful. The remaining 40 modeling rats were randomly divided into low-dose (1 mg·Kg−1) group, medium-dose (2 mg·Kg−1) group, high-dose (4 mg·Kg−1) group, positive drug group, and model group.
(§8) Bicyclol (place of origin: Beijing Xiehe Pharmaceutical Factory, specification: 25 mg/tablet, batch number: H20040467) was used as a positive drug.
(§9) After successful modeling, rats were administered drugs with dosages as prescribed for 60 consecutive days, continued to be fed with high-fat diet, and dissected on the 61st day. Liver was harvested and weighed, liver index was calculated, right lobe tissue was taken to prepare frozen sections, and fat staining was performed with Sudan III for pathological scoring according to guidelines for diagnosis and treatment of NAFLD. Another liver tissue was taken to prepare homogenate, and total cholesterol (TC), triglyceride (TG), malondialdehyde (MDA), and superoxide dismutase (SOD) in serum were detected.

[9] = tested on: hyperlipemia rats; experiment: Hyperlipemia rats (high-fat diet), biochemical indexes TG, TC, SOD, MDA; assay type: in vivo, SD rats; conditions: 50 mg·kg−1·d−1, 60 d
Experimental: as §6, §7, §8, §9

[10] = day 61, liquor model, 50 mg·kg−1·d−1 ig 60 d, n=16
[11] = serum day 61, liquor model, 50 mg·kg−1·d−1 ig 60 d, n=16

Compound: COc1cc(/C=C/C(=O)CC(=O)/C=C/c2ccc(O)c(OC)c2)ccc1O [Cur, curcumin, reference compound]
- IL-6 [1]: 1003.97 ± 60.33 pg/mL
- IL-1β [2]: 742.12 ± 10.33 pg/mL
- TNF-α [3]: 492.32 ± 8.92 pg/mL

Compound: COC(=O)c1cc(OC)c2c(c1-c1c(CO)cc(OC)c3c1OCO3)OCO2 [bicyclol, reference compound]
- Body weight ([4]; Week 0, n=16): 188.19 g
- Body weight ([4]; Week 1, n=16): 211.95 g
- Body weight ([4]; Week 2, n=16): 279.31 g
- Body weight ([4]; Week 3, n=16): 292.58 g
- Body weight ([4]; Week 4, n=16): 317.80 g
- Body weight ([4]; Week 5, n=16): 313.19 g
- Body weight ([4]; Week 6, n=16): 333.57 g
- Body weight ([4]; Week 7, n=16): 360.01 g
- Body weight ([4]; Week 8, n=16): 380.37 g
- MDA [5, 10]: 70.41 ± 20.33 nmol/mgprot
- SOD [5, 10]: 167.47 ± 18.91^ U/mgprot
- Pathological examination of liver ([5]; liquor model, positive drug group 50 mg·Kg−1 ig 60 d): no hyperplasia of interstitial connective tissue and fatty degeneration of hepatocytes
- TC [5, 11]: 1.45 ± 0.43 mmol/L
- TG [5, 11]: 1.03 ± 0.34 mmol/L
- TNF-α in hippocampus tissue [6]: 286.32 ± 43.79.* μg · g^−1 prot
- IL-1β in hippocampus tissue [7]: 73.93 ± 9.37 μg · g^−1 prot
- Body mass ([8]; 8 cases): 453.8 ± 34.7 g
- Liver index ([8]; 8 cases): 3.2 ± 0.4
- Liver mass ([8]; 8 cases): 14.6 ± 4.5 g
- Pathological state (NASH) ([8]; of 8 cases): 2 cases
- MDA [9]: 72.39 ± 19.23 nmol/mgprot
- SOD [9]: 157.41 ± 16.45^ U/mgprot
- TC [9]: 1.45 ± 0.63 mmol/L
- TG [9]: 1.23 ± 0.35 mmol/L
